Measured values: PMC6711404 (Science signaling, 2017)
Several values for one entry are separate records, joined by “and”; a condition that tells them apart may be missing. Equal entries are not always repeated.

Key:
[1] = test system: pRII (PKA-II signaling activity) in mouse sensory neurons; format: cell-based
[2] = test system: pRII (PKA-II signaling activity) in rat sensory neurons; format: cell-based; conditions: for IC50: read-out: IC50 on pRII signals induced by 5-HT

Compound: 8-bromoadenosine-3′,5′-cyclic monophosphorothioate, Sp-isomer, and acetoxymethyl ester [Sp-8-Br-cAMPS-AM]
- pRII response in Nav1.7-/- versus Nav1.7+/+ cultures [1]: the same

Compound: NCCc1c[nH]c2ccc(O)cc12 [5-HT]
- Neuron subgroups in which pRII intensity is increased [2]: predominately activated RIIβ(+) neurons
- Numbers of RIIβ(+) neurons responsive to 5-HT [1]: 27.8 ± 1.3% and 19.1 ± 1.2%
- Smaller sized sensory neurons with increased pRII signals [1]: 17% and 21%
- pRII response in Nav1.7-/- versus Nav1.7+/+ cultures [1]: the maximum amplitude but not the EC50 of the pRII response to 5-HT was reduced

Compound: C=C[C@@]1(C)CC(=O)[C@]2(O)[C@@]3(C)[C@@H](O)CCC(C)(C)[C@@H]3[C@H](O)[C@H](OC(C)=O)[C@@]2(C)O1 [Fsk, forskolin]
- Neuron subgroups in which pRII intensity is increased [2]: all rat sensory neurons, both RIIβ(-) and RIIβ(+) neurons
- Population of Fsk-responding cells [1]: 28% and 23%
- pRII response in Nav1.7-/- versus Nav1.7+/+ cultures [1]: the same

Compound: Cn1cc(C(=O)OCC2CCN(CCNS(C)(=O)=O)CC2)c2ccccc21 [GR113808]
- Effect on 5-HT-induced pRII intensity [2]: blocked
- IC50 [2]: 8.6 nM

Compound: CCCCC[C@H](O)/C=C/[C@@H]1[C@H]2C/C(=C/CCCC(=O)O)O[C@H]2C[C@H]1O [PGI2, prostacyclin]
- Neuron subgroups in which pRII intensity is increased [2]: predominately activated RIIβ(+) neurons
- pRII response in Nav1.7-/- versus Nav1.7+/+ cultures [1]: the same

Compound: O=C1CC[C@@]2(O)[C@H]3Cc4ccc(O)c5c4[C@@]2(CCN3CC2CC2)[C@H]1O5 [naltrexone]
- Effect on 5-HT-induced pRII intensity [2]: no effect
- Effect on basal pRII intensity [2]: no effect
- Effect on baseline amount of pRII [1]: Neither fentanyl nor naltrexone altered

Compound: CTOP
- Effect on 5-HT-induced pRII intensity [2]: did not affect
- Effect on DAMGO inhibition of the 5-HT-induced increase in pRII [2]: partially
- Effect on basal pRII intensity [2]: did not affect

Compound: DAMGO
- IC50 [2]: 321 nM
- Inhibition of 5-HT-induced pRII: Nav1.7-/- versus wild-type neurons [1]: The IC50 to inhibit 5-HT-induced pRII was similar, but the maximum response was greater
